Data: patent US12085575B2, “Compositions and methods for detecting proteinopathies” (BOARD OF SUPERVISORS OF LOUISIANA STATE UNIVERSITY AND …, priority 2011, dated 2024)
Residues, ends and D or L forms follow the SMILES beside them. *: point of attachment. Cbz = O=C(OCc1ccccc1)*

What was measured:
Format in all cases: cell-based, human
[1] = test system: HA-polyubiquitylated proteins; assay: UV-induced degradation of HA-polyubiquitylated proteins (anti-HA Western blot); conditions: A-T cells; 50 nM Bafl
LC3 and p62 = assay: UV-induced degradation of autophagy substrates LC3 and p62 (Western blot)
Method: Immunoblotting and immunofluorescence analysis: Immunoblotting analysis of proteins in cultured cells: Cells ([…]) were cultured in 35 mm tissue culture plates. After various experimental treatments, cells were lysed using an SDS-PAGE sample buffer. Cell lysates were then analyzed by SDS-PAGE (10% for p62 or 15% for LC3 and polyubiquitin conjugates) and immunoblotting analysis using either anti-ISG15 (raised against human ISG15 (23)), anti-ubiquitin (Sigma-Aldrich), anti-HA (gift from Dr. Walworth at Robert Wood Johnson Medical School/University of Medicine and Dentistry of New Jersey; Piscataway, NJ)), anti-LC3 (MBL International Corporation; Woburn, MA), or p62 (Sigma-Aldrich) antibodies, as indicated, using the ECL Western procedure (Pierce) and the BioRad VersaDoc Imaging System.
Because degradation of proteasome substrates is deregulated in A-T cells, the degradation of the autophagy substrates (autophagic flux) LC3 and p62 was assessed in UV-exposed A-T and ATM+ cells (55). For FIGS. 10A-10D, A-T and ATM+ cells were treated with Bafl (1 nM for 18 h) and then exposed to UV as indicated (25 mJ/m2). Three hours after recovery in the presence of inhibitors, cells were lysed. Cell lysates were analyzed by Western blotting for LC3 (FIG. 10A), p62 […], and actin (lower panels in FIGS. 10A and 10C) using their specific antibodies. Intensity of the total LC3 (LC3-I+II) and p62 proteins was quantitated using BioRad Quantity One software, and the results shown in FIGS. 10B and 10D, respectively. […] show average values (±SEM) of % degradation of LC3 and p62 from three independent experiments. All control values (−UV and +Bafl) are normalized to 100%, and values for experimental treatments were expressed as percent variations over control
UV induces aberrant degradation of autophagy substrate LC3 in A-T cells and brain slices. In FIG. 19A, LC3 degradation in UV-treated A-T cells is shown. […] Intensities of the total LC3 bands were quantitated using BioRad Quantity One software.

[2] = test system: autophagosomes and autophagolysosomes; assay: Cyt-ID and LysoTracker Red staining of autophagosomes, lysosomes and autophagolysosomes; conditions: for fusion between autophagosomes and lysosomes: Bafl 1 nM 18 h; for mean # of green dots/cell (autophagosomes) / mean # of yellow dots/cell (autophagolysosomes): A-T/control shRNA cells, bafilomycin treated
Method: Autophagasome, lysosome and autophagolysosomes staining. Cells (100,000/point) were cultured on fibronectin-coated glass coverslips. Cells were treated with autophagy inhibitor Bafl (1 nM) (Sigma-Aldrich) for 18 hr. Cells were then exposed to UV radiation and allowed to recover in the presence of inhibitors for 3 h. Cells were then washed (2×1 min) with PBS and co-stained with Cyt-ID® (Cyt-ID® Autophagy Detection Kit from Enzo Lifesciences; Farmingdale, NY) and Lyso Tracker® Red DND-99 (Invitrogen) for 30 min at 37° C. in a CO2 incubator following manufacturer's protocol. Stained cells were then washed (2×1 min) with PBS and fixed with 4% paraformaldehyde for 20 min at room temperature. After washing with PBS (3×10 min), cells were mounted on slides in anti-fade mounting medium with DAPI (Invitrogen). Images were taken using a 63× oil immersion objective with a Leica DMRA2 upright microscope run through SlideBook software (Intelligent Imaging Innovations).
Autophagic flux was also monitored using Cyto-ID® and LysoTrack Red dyes. A-T and ATM+ cells were treated with Bafl (1 nM for 18 h) and then exposed to UV (25 mJ/m2) as indicated. Three hours after recovery in the presence of inhibitors, cells were co-stained with Cyt-ID® and LysoTracker Red® dyes. Fluorescence images of Cyt-ID® and LysoTracker Red® stained cells were made (Color images not shown). Green (autophagosomes; from Cyt-TD®-stained panels), red (lysosomes; from LysoTracker Red-stained panels), and yellow (autophagolysosomes; from merged panels) dots in A-T and ATM+ cells were counted manually using the ImageJ plug-in Cell Counter. Mean number of dots/cell is shown in FIGS. 11A and 11B, respectively. In FIGS. 11A and 11B, the number of autophagosomes (green dots) is represented by stippled bars; the number of lysosomes (red dots) is presented by lined bar; and the number of autophagolysosomes (yellow dots) is represented by clear (white) bars.
Bafilomycin inhibits autophagy at a late stage (47). Whether 3-methyl adenine (3-MA), an autophagy inhibitor known to inhibit autophagy at early stage by inhibiting formation of autophagosomes (56), could block UV-induced autophagic flux was tested in A-T/LV-control shRNA cells. Using Cyto-ID® and LysoTrack Red dyes as described herein in FIGS. 9A, 9B, 11A and 11B, the same criteria were used to judge autophagic activity in immunofluorescence analysis as described for FIGS. 11A and 11B.
The effect of 3-MA on UV-induced autophagic flux was tested in A-T/LV-ISG15 shRNA cells. A-T/LV-ISG15 shRNA cells were either left untreated or treated with 3-MA (10 nM for 18 h), and cells were then exposed to UV (25 mJ/m2). Three hours after recovery in the presence of the inhibitor, cells were co-stained with Cyt-ID® and LysoTracker Red® dyes. Fluorescence images of Cyt-ID® and LysoTracker Red® stained cells were made.

p53 = p53 turnover with CHX with or without MG132; conditions: ATM+ cells, MG132 10 μM, CHX 10 μg/ml, 6 hours
Method: Both p53 and STAT3 are known targets of the ubiquitin/26S proteasome pathway. To determine whether steady state level of these proteins is regulated by ATM, turnover of both p53 and STAT3 were measured. In FIG. 2C, FT169A (A-T) and FT169A (ATM+) cells were treated with the protein synthesis inhibitor CHX (10 μg/ml) in the presence (lanes 3 and 6) or absence (lanes 2 and 5) of the proteasome inhibitor MG132 (10 μM) for 6 hours. Cell lysates were analyzed by immunoblotting using an anti-p53 antibody (upper row). The intensity of the p53 bands was measured using a Kodak Image station 2000R […]. Results are shown in the bar graph (right panel). The filter used for immunoblotting was stained with Ponceau S to assure equal protein loading (lower row). […] By contrast, p53 protein was rapidly degraded within 6 hours of CHX treatment in FT169A (ATM+) cells (FIG. 2C, lanes 4 and 5, and bar graph for p53 band quantization).

| Compound | UV-induced degradation of cellular proteins [1] | UV-mediated degradation of LC3 and p62 (LC3 and p62; A-T cells, Bafl 1 nM 18 h, UV 25 mJ/m2) | LC3 and p62 levels (LC3 and p62; ATM+ cells treated with UV in the absence or presence of Bafl) | UV-induced autophagic flux (LC3 degradation) (LC3 and p62; ATM+ cells, Bafilomycin A1 1 nM 18 h, UV 25 mJ) | fusion between autophagosomes and lysosomes ([2]; A-T cells) | mean # of green dots/cell (autophagosomes) ([2]; with UV) [dots/cell] | mean # of yellow dots/cell (autophagolysosomes) ([2]; with UV) [dots/cell] | mean # of green dots/cell (autophagosomes) ([2]; without UV) [dots/cell] | mean # of yellow dots/cell (autophagolysosomes) ([2]; without UV) [dots/cell] | fusion between autophagosomes and lysosomes ([2]; ATM+ cells) | turnover of p53 in the presence of CHX (p53) |
| --- | --- | --- | --- | --- | --- | --- | --- | --- | --- | --- | --- |
| CO/C1=C\C(C)=C\[C@@H](C)[C@@H](O)[C@@H](C)C/C(C)=C/C=C/[C@H](OC)[C@@H]([C@@H](C)[C@@H](O)[C@H](C)[C@@]2(O)C[C@@H](O)[C@H](C)[C@@H](C(C)C)O2)OC1=O [Bafilomycin A1] | failed to protect | failed to protect | no apparent changes | protected | failed to do so | 0.8 | 1.5 | 6 | 5.8 | blocked fusion |  |
| CC(C)C[C@@H](C=O)NC(=O)[C@H](CC(C)C)NC(=O)[C@H](CC(C)C)NC(=O)OCc1ccccc1 [MG132] (Cbz-Leu-Leu-Leu-aldehyde) |  |  |  |  |  |  |  |  |  |  | blocked |
